We go through five compounds from publication PMC8081377 (Mutagenesis, 2021).

The test system of data set [1] is EpiDerm™ EPI-200-MNA skin tissues.
The test system of data set [2] is reconstructed human skin (RS) tissues. The following applies: cited from earlier work.
The conditions of data set [3]: topically-applied; cited from earlier work.
Data set [4] concerns RS tissues. The following applies: multiple treatments of RS tissues; cited from earlier work.
Data set [5] relates to EpiDerm™ EPI-200-MNA skin tissues. The following applies: for top/maximum dose tested, limited by excessive or strong cytotoxicity: % VCC or % BN, lab(s) as stated in the text.
For data set [6], the system named is stomach, liver. The following applies: rats, daily treatment for 3 days, initial evaluation; cited from earlier work.
Data set [7] concerns multiple tissues. The following applies: mice, single i.p. injection; cited from earlier work.
The conditions of data set [8]: ref Supplementary Table S1, cited from earlier work.
Data set [9] concerns mouse lymphoma cells. The following applies: cited from earlier work.
Data set [10] concerns V79, CHO, CHL, HuLy, TK6, HepG2, L5178Y cells. The following applies: cited from earlier work.
The subject of data set [11] is CHO, CHL, V79, HuLy cells. The following applies: cited from earlier work.
Where [12] appears, read: three treatments, vs solvent control.
Setting [13] is: two treatments, vs solvent control.

Read-outs that look alike come from different tables or passages of the source.

Consider `CC(=O)Nc1ccc2c(c1)Cc1ccccc1-2` [2-Acetylaminofluorene (2-AAF), 2-Acetylaminofluorene], for which, in data set [1] (overall call), the “classification in the RSMN assay by Lab B” value (“classification … by Lab B” for short) is “negative”, the “classification in the RSMN assay by Lab C” value is “negative” and the “classification in the RSMN assay by Lab D” value is on record as “negative”. Moreover, in data set [1] (setting [12]), the “% MN-BN response in individual experiment(s), Lab B, 72-h protocol” value (“% MN-BN response … Lab B, 72-h protocol” for short) is “without a significant response” and the “% MN-BN response in individual experiment(s), Lab C, 72-h protocol” value is on record as “without a significant response”. Also, in data set [1] (setting [13]), the “% MN-BN response in individual experiment(s), Lab B, 48-h protocol” value (from here on “% MN-BN response … Lab B, 48-h protocol”) was “without a significant response”; the “% MN-BN response in individual experiment(s), Lab C, 48-h protocol” value (from here on “% MN-BN response … Lab C, 48-h protocol”) is recorded as “without a significant response”; the “% MN-BN response in individual experiment(s), Lab D, 48-h protocol” value is “no significant increase”. In data set [2], the “DNA damage in the RS Comet assay” value is “weak, but statistically significant and reproducible increase in DNA damage”. For the same compound, the “response in the RS Comet assay” value in data set [2] (multiple treatments of RS tissues) is reported as “significant response”. In addition, the “metabolism in human skin explants” value in data set [3] is listed as “evidence for metabolism”. Besides, the “response in the RSMN assay” value in data set [4] is recorded as “not in the RSMN assay”.
As for `[Cl][Cd][Cl]` [Cadmium chloride (CdCl2), Cadmium chloride], in [1] (overall call), the “classification in the RSMN assay by Lab A” value is listed as “positive”, the “classification … by Lab B” value is on record as “negative” and the “classification in the RSMN assay by Lab C” value is listed as “positive”. Also, in [1] (setting [12]), the “% MN-BN response in individual experiment(s), Lab A, 72-h protocol” value is given as “clear increase” and the “% MN-BN response … Lab B, 72-h protocol” value is on record as “negative results”. In addition, in data set [1] (setting [13]), the “% MN-BN response in individual experiment(s), Lab A, 48-h protocol” value was “without any significant increase”; the “% MN-BN response … Lab B, 48-h protocol” value is “No detectable increase”; the “% MN-BN response … Lab C, 48-h protocol” value is “negative”. Further, the “top/maximum dose tested, limited by excessive or strong cytotoxicity” value (from here on “top/maximum dose tested, limited”) in [5] is on record as 160 µg/cm^2. In addition, the “doses that caused 50% cytotoxicity” value in data set [5] (Lab A, 48-h protocol, Phase 2c) is listed as 100–160 µg/cm^2. Moreover, the “in vivo comet assay result, stomach” value in data set [6] is on record as “positive”. In data set [7], the “in vivo comet assay result, multiple tissues” value is reported as “negative results”.
With `C1=Cc2cc3cccc4ccc5ccc1c2c5c43` [Cyclopenta[c,d]pyrene (CPPE), Cyclopenta[c,d]pyrene], the “classification … by Lab B” value in data set [1] (overall call) is “positive”. Also, the “% MN-BN response … Lab B, 72-h protocol” value in data set [1] (setting [12]) is recorded as “significant increase”. The “% MN-BN response … Lab C, 48-h protocol” value in data set [1] (setting [13]) is given as “negative results”. Besides, the “maximum dose tested without exceeding the cytotoxicity thresholds” value in data set [5] (lack of excessive cytotoxicity, 48-h protocol) is given as 1600 µg/cm^2. For the same compound, the skin tumours entry in data set [8] (mice, dermal application) is reported as “induce skin tumours”. The “mouse lymphoma assay” value in [9] is “positive”.
Take `Nc1ccn([C@@H]2O[C@H](CO)[C@@H](O)[C@@H]2O)c(=O)n1` [Cytosine arabinoside]: the “classification … by Lab B” value in [1] (overall call) is recorded as “negative”. In addition, in data set [1] (setting [12]), the “% MN-BN response … Lab B, 72-h protocol” value was “Negative results”. Also, in [1] (setting [13]), the “% MN-BN response … Lab B, 48-h protocol” value was “did not show a significant increase”. For the same compound, in data set [5], the “top/maximum dose tested, limited” value came to 48 µg/cm^2. Moreover, the “in vitro MN tests” value in [10] is “positive”. The “in vitro chromosome aberration tests” value in [11] is “positive”.
`C=CCc1ccc(O)c(OC)c1` [Eugenol]: in data set [1] (overall call), the “classification in the RSMN assay by Lab A” value is recorded as “positive”. The “% MN-BN response in individual experiment(s), Lab A, 72-h protocol” value in [1] (setting [12]) was “significant increase in the % MN-BN was seen at the two highest doses”. Moreover, in data set [1] (setting [13]), the “% MN-BN response in individual experiment(s), Lab A, 48-h protocol” value is reported as “significant increase in % MN-BN only at one mid-dose”. In addition, the “top/maximum dose tested, limited” value in data set [5] is 80–100 µg/cm^2. Also, in data set [8], the carcinogenicity tests entry was “negative”. Further, the “in vitro MN tests” value in [10] (ref Supplementary Table S1) is on record as “positive findings”. Moreover, in [11] (ref Supplementary Table S1), the “in vitro chromosome aberration tests” value is “positive findings”.
